Measured values reported in US12077503B2, “Substituted cyclic amides and their use as herbicides” (FMC CORPORATION, priority 2015, dated 2024).

Key:
Type in all cases: in vivo
Kochia (Kochia scoparia) [1] = experiment: Test A preemergence; settings: Bassia scoparia, pre-emergence, 240 h, Preemergence
Summary of the method: (§1)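 Seeded soil received test chemicals as a preemergence directed spray, and seedlings at one to two leaves, 2–10 cm tall, received them postemergence, in a non-phytotoxic, surfactant-containing solvent mixture. Pots were held in a greenhouse for approximately 10 d, then rated for injury from 0, no effect, to 100, complete control.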

[2] = tested on: barnyardgrass (Echinochloa crus-galli); experiment: Test A preemergence; settings: Echinochloa crus-galli, pre-emergence, 240 h, Preemergence
Summary of the method: as §1

[3] = tested on: ragweed (common ragweed, Ambrosia elatior); experiment: Test A preemergence; settings: Ambrosia artemisiifolia, pre-emergence, 240 h, Preemergence
Summary of the method: as §1

[4] = tested on: pigweed (Amaranthus retroflexus); experiment: Test A preemergence; settings: Amaranthus retroflexus, pre-emergence, 240 h, Preemergence
[5] = tested on: ryegrass, Italian (Italian ryegrass, Lolium multiflorum); experiment: Test A preemergence; settings: Lolium multiflorum, pre-emergence, 240 h, Preemergence
Summary of the method: as §1

[6] = tested on: giant foxtail (Setaria faberii); experiment: Test A preemergence; settings: Setaria faberi, pre-emergence, 240 h, Preemergence
Summary of the method: as §1

Kochia (Kochia scoparia) [7] = experiment: Test A postemergence; settings: Bassia scoparia, post-emergence, 240 h, Postemergence, read-out: Plant response rating, Kochia
Summary of the method: as §1

corn (Zea mays) = experiment: Test A postemergence; settings: Zea mays, post-emergence, 240 h, Postemergence
Summary of the method: as §1

[8] = tested on: barnyardgrass (Echinochloa crus-galli); experiment: Test A postemergence; settings: Echinochloa crus-galli, post-emergence, 240 h, Postemergence, read-out: Plant response rating, Barnyardgrass
Summary of the method: as §1

[9] = tested on: ragweed (common ragweed, Ambrosia elatior); experiment: Test A postemergence; settings: Ambrosia artemisiifolia, post-emergence, 240 h, Postemergence, read-out: Plant response rating, Ragweed
Summary of the method: as §1

[10] = tested on: wheat (Triticum aestivum); experiment: Test A postemergence; settings: Triticum aestivum, post-emergence, 240 h, Postemergence, read-out: Plant response rating, Wheat
Summary of the method: as §1

[11] = tested on: pigweed (Amaranthus retroflexus); experiment: Test A postemergence; settings: Amaranthus retroflexus, post-emergence, 240 h, Postemergence, read-out: Plant response rating, Pigweed
Summary of the method: as §1

[12] = tested on: blackgrass (Alopecurus myosuroides); experiment: Test A postemergence; settings: Alopecurus myosuroides, post-emergence, 240 h, Postemergence, read-out: Plant response rating, Blackgrass
Summary of the method: as §1

[13] = tested on: ryegrass, Italian (Italian ryegrass, Lolium multiflorum); experiment: Test A postemergence; settings: Lolium multiflorum, post-emergence, 240 h, Postemergence, read-out: Plant response rating, Ryegrass, Italian
Summary of the method: as §1

[14] = tested on: Galium (catchweed bedstraw, Galium aparine); experiment: Test A postemergence; settings: Galium, post-emergence, 240 h, Postemergence, read-out: Plant response rating, Galium
Summary of the method: as §1

[15] = tested on: giant foxtail (Setaria faberii); experiment: Test A postemergence; settings: Setaria faberi, post-emergence, 240 h, Postemergence, read-out: Plant response rating, Foxtail, Giant
Summary of the method: as §1

rice (Oryra sativa) = experiment: Test B flooded paddy test; settings: Oryza sativa, Flood, 250 g ai/ha; scale of 0 to 100 where 0 is no effect and 100 is complete control; read-out: Rice plant response rating
Summary of the method: (§2)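 Greenhouse paddy pots with 2-leaf stage plants received compound by direct addition to floodwater 3 cm deep, kept at that level. Scored visually at 13–15 d versus controls (0 no effect; 100 complete control).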

[16] = tested on: ducksalad (Heteranthera limosa); experiment: Test B flooded paddy test; settings: Heteranthera limosa, Flood, 250 g ai/ha; scale of 0 to 100 where 0 is no effect and 100 is complete control; read-out: Ducksalad plant response rating
Summary of the method: as §2

[17] = tested on: barnyardgrass (Echinochloa crus-galli); experiment: Test B flooded paddy test; settings: Echinochloa crus-galli, Flood, 250 g ai/ha; scale of 0 to 100 where 0 is no effect and 100 is complete control; read-out: Barnyardgrass plant response rating
Summary of the method: as §2

[18] = tested on: sedge, umbrella (small-flower umbrella sedge, Cyperus difformis); experiment: Test B flooded paddy test; settings: Cyperus difformis, Flood, 250 g ai/ha; scale of 0 to 100 where 0 is no effect and 100 is complete control; read-out: Sedge, Umbrella plant response rating
Summary of the method: as §2

[19] = 125 g ai/ha, visual injury after approximately 10 d, 0 to 100 scale where 0 is no effect and 100 is complete control
[20] = 31 g ai/ha, visual injury after approx. 10 d, 0 to 100 scale, 0 no effect, 100 complete control

## Cc1oncc1NC(=O)[C@H]1C(=O)N(C)C[C@@H]1c1cc(F)cc(F)c1 [Compound 970]
Kochia (Kochia scoparia) [1]; 125 g ai/ha, visual injury rating after approximately 10 d, read-out: Kochia plant response rating (0 to 100 scale, 0 is no effect, 100 is complete control)
  pest or weed control at 125 g/ha: 0%
Kochia (Kochia scoparia) [1]; 31 g ai/ha, 0 to 100 scale (0 no effect, 100 complete control), read-out: Plant response rating, Kochia
  pest or weed control at 31 g/ha: 0%
[2]; 125 g ai/ha, visual injury rating after approximately 10 d, read-out: Barnyardgrass plant response rating (0 to 100 scale, 0 is no effect, 100 is complete control)
  pest or weed control at 125 g/ha: 0%
[2]; 31 g ai/ha, 0 to 100 scale (0 no effect, 100 complete control), read-out: Plant response rating, Barnyardgrass
  pest or weed control at 31 g/ha: 0%
[3]; 125 g ai/ha, visual injury rating after approximately 10 d, read-out: Ragweed plant response rating (0 to 100 scale, 0 is no effect, 100 is complete control)
  pest or weed control at 125 g/ha: 0%
[3]; 31 g ai/ha, 0 to 100 scale (0 no effect, 100 complete control), read-out: Plant response rating, Ragweed
  pest or weed control at 31 g/ha: 0%
[4]; 125 g ai/ha, visual injury rating after approximately 10 d, read-out: Pigweed plant response rating (0 to 100 scale, 0 is no effect, 100 is complete control)
  pest or weed control at 125 g/ha: 0%
[4]; 31 g ai/ha, 0 to 100 scale (0 no effect, 100 complete control), read-out: Plant response rating, Pigweed
  pest or weed control at 31 g/ha: 0%
[5]; 125 g ai/ha, visual injury rating after approximately 10 d, read-out: Ryegrass, Italian plant response rating (0 to 100 scale, 0 is no effect, 100 is complete control)
  pest or weed control at 125 g/ha: 0%
[5]; 31 g ai/ha, 0 to 100 scale (0 no effect, 100 complete control), read-out: Plant response rating, Ryegrass, Italian
  pest or weed control at 31 g/ha: 0%
[6]; 125 g ai/ha, visual injury rating after approximately 10 d, read-out: Foxtail, Giant plant response rating (0 to 100 scale, 0 is no effect, 100 is complete control)
  pest or weed control at 125 g/ha: 80%
[6]; 31 g ai/ha, 0 to 100 scale (0 no effect, 100 complete control), read-out: Plant response rating, Foxtail, Giant
  pest or weed control at 31 g/ha: 20%
Kochia (Kochia scoparia) [7]; [19]
  pest or weed control at 125 g/ha: 0%
Kochia (Kochia scoparia) [7]; [20]
  pest or weed control at 31 g/ha: 0%
Corn (Zea mays); [19]
  Corn plant response rating (crop injury, 0 = no effect, 100 = complete kill) at 125 g/ha: 0%
Corn (Zea mays); [20]
  Corn plant response rating (crop injury, 0 = no effect, 100 = complete kill) at 31 g/ha: 0%
[8]; [19]
  pest or weed control at 125 g/ha: 0%
[8]; [20]
  pest or weed control at 31 g/ha: 0%
[9]; [19]
  pest or weed control at 125 g/ha: 0%
[9]; [20]
  pest or weed control at 31 g/ha: 0%
[10]; [19]
  plant injury at 125 g/ha: 0%
[10]; [20]
  plant injury at 31 g/ha: 0%
[11]; [19]
  pest or weed control at 125 g/ha: 0%
[11]; [20]
  pest or weed control at 31 g/ha: 0%
[12]; [19]
  pest or weed control at 125 g/ha: 0%
[12]; [20]
  pest or weed control at 31 g/ha: 0%
[13]; [19]
  pest or weed control at 125 g/ha: 0%
[13]; [20]
  pest or weed control at 31 g/ha: 0%
[14]; [19]
  pest or weed control at 125 g/ha: 0%
[14]; [20]
  pest or weed control at 31 g/ha: 0%
[15]; [19]
  pest or weed control at 125 g/ha: 0%
[15]; [20]
  pest or weed control at 31 g/ha: 0%
Rice (Oryra sativa)
  pest or weed control at 250 g/ha: 0%
[16]
  pest or weed control at 250 g/ha: 0%
[17]
  pest or weed control at 250 g/ha: 0%
[18]
  pest or weed control at 250 g/ha: 0%
